Read-outs that look alike come from different tables or passages of the source.
Legend:
Karpas 1106p cells [1] = experiment: Cytotoxicity (LD50) against Karpas lymphoma cells; format: cell-based, human; settings: Table 3
Source text: Table 3 lists the inhibition kinetic parameters, selectivity index, and calculated log Ps of selected dipeptides.

[2] = tested on: proteasome inside the Karpas 1106p cells; experiment: Cell-based Proteasome-Glo assay after compound removal; design: species or system human; settings: 4 hours, read-out: Proteasome-glo β5-IC50
Karpas 1106p cells [3] = experiment: Cytotoxicity (LD50) against Karpas lymphoma cells; format: cell-based, human; settings: Table 4
hu i-20S β5i-subunit = hu i-20S β5i-subunit (Homo sapiens, UniProt P20618+P28062); experiment: N,C-capped dipeptides IC50, Ac-ANW-AMC fluorescence assay; format: biochemical; settings: for SI (selectivity index): Hu c-20S over Hu i-20S
Protocol: (§1) All inhibitory assays for N,C capped dipeptides were performed in a black solid-bottom 96-well plate. In general, compound plates were prepared starting from 10 mM in 3× series dilution to 15 μM. 1 μl of DMSO stock was transferred to a black 96-well plate and 100 μL of reaction mixture were added 15 μM N-acetyl-Alanine-Asparagine-Tryptophan-7-amino-4-methylcourmarin (Ac-ANW-AMC) or 25 μM succinyl-Leucine-Leucine-Valine-Tyrosine-7-amino-4-methyl-courmarin (succ-LLVY-AMC), 0.4 nM hu i-20S β5i-subunit or 0.2 nM hu c-20S β5c-subunit, 0.02% SDS, 1% BSA, 0.5 mM EDTA in 20 mM HEPES buffer at pH7.5. The plates were then spun at 1000 rpm for 1 minute, and the fluorescence units of each well were recorded at λex=360 nm, λem=460 nm for 2 hours. The slopes of the initial linear range of the time course were used to calculate the velocity, and relative activities were normalized to the velocities of the DMSO control.

hu c-20S β5c-subunit = hu c-20S β5c-subunit (Homo sapiens, UniProt P20618+P28074); experiment: N,C-capped dipeptides IC50, succ-LLVY-AMC fluorescence assay; format: biochemical
Protocol: as §1

hu i-20S β5i = hu i-20S β5i (Homo sapiens, UniProt P20618+P28062); experiment: Kinetic parameters of oxathiazolones vs hu i-20S β5i; format: biochemical; settings: for kinact: printed value is kinact × 10^3
Karpas cells = experiment: Accumulation of poly-ubiquitinylated proteins in Karpas cells (anti-ub blot); format: cell-based, human; settings: 24 hours treatment
Protocol: FIGS. 5A-C show experimental results relating to SAR studies and target engagement inside the cells. FIG. 5A is a graph showing experimental results relating to inhibition of i-20S β5i and c-20S β5c by selected dipeptides. […] FIG. 5C is an image of an SDS-page gel showing accumulation of poly-ubiquitinylated (ub) proteins. Karpas cells were treated with dipeptides, or with bortezomib as a control, at indicated concentrations for 24 hours, and the poly-ub proteins in the lysates were blotted with anti-ub antibody and visualized with a second antibody directed against the first antibody and tagged with a dye that absorbs infrared light (Odyssey® CLx imaging system, LICOR).

hu c-20S β5c = hu c-20S β5c (Homo sapiens, UniProt P20618+P28074); experiment: Kinetic parameters of oxathiazolones vs hu c-20S β5c; format: biochemical; settings: Hu20S β5c; from slopes of kobs vs [I]

| SMILES | LD50 (Karpas 1106p cells [1]) | IC50 [2] | LD50 Karpas (Karpas 1106p cells [3]) | IC50 (hu i-20S β5i-subunit) | SI (selectivity index) (hu i-20S β5i-subunit) | IC50 (hu c-20S β5c-subunit) | also measured |
| --- | --- | --- | --- | --- | --- | --- | --- |
| C[C@H](NC(=O)[C@H](CC(=O)NOC(C)(C)C)NC(=O)CCc1ccccc1)C(=O)NCc1cccc2[nH]ccc12 [DPLG-2083, (S)—N^1—((S)-1-(((1H-indol-4-yl)methyl)amino)-1-oxopropan-2-yl)-N^4-(tert-butoxy)-2-(3-phenylpropanam-ido)succinamide] | 0.254 µM | 160 nM | 0.254 µM | 25 nM | 10 | 240 nM |  |
| C[C@H](NC(=O)[C@H](CC(=O)NOC(C)(C)C)NC(=O)CCCc1ccccc1)C(=O)NCc1cccc2ccccc12 [DPLG-2127, (S)—N4-(tert-butoxy)-N1-((S)-1-((naphthalen-1-ylmethyl)amino)-1-oxopropan-2-yl)-2-(4-phenylbutanamido)succinamide] | >100 µM | 160 nM | >100 µM |  |  |  |  |
| C[C@H](NC(=O)[C@H](CC(=O)NC1COC1)NC(=O)CCc1ccccc1)C(=O)NCc1cccc2ccccc12 [DPLG-2130, (S)—N1-((S)-1-((naphthalen-1-ylmethyl)amino)-1-oxopropan-2-yl)-N4-(oxetan-3-yl)-2-(3-phenylpropanamido)succinamide] | 67.8 µM | 1130 nM | 67.8 µM |  |  |  |  |
| O=c1oc(-c2ccc(-c3ccccc3)cc2)ns1 [HT2004] |  |  |  |  |  |  | Ki (hu i-20S β5i): 1400 nM |
| COC[C@H](NC(=O)[C@H](CC(=O)NOC(C)(C)C)NC(=O)CCc1ccccc1)C(=O)NCc1cccc(OC)c1 [DPLG-2160, (S)—N^4-(tert-butoxy)-N^1—-((S)-3-methoxy-1-((3-methoxybenzyl)amino)-1-oxopropan-2-yl)-2-(3-phenylpropanamido)succinamide] | 0.05 µM | 19 nM | 0.05 µM | 9.4 nM | 10 | 98 nM |  |
| CC(C)C[C@H](NC(=O)[C@H](Cc1ccccc1)NC(=O)c1cnccn1)B(O)O [Bortezomib, reference compound] |  | 0.6 nM | 0.0017 µM |  |  |  | accumulation of poly-ubiquitinylated proteins (Karpas cells): accumulation |
| COC[C@H](NC(=O)[C@H](CC(=O)NOC(C)(C)C)NS(=O)(=O)c1ccc(C)cc1)C(=O)NCc1cccc2ccccc12 [DPLG-2150, (S)—N^4-(tert-butoxy)-N^1—((S)-3-methoxy-1-((naphthalen-1-ylmethyl)amino)-1-oxopropan-2-yl)-2-((4-methylphenyl)sulfonamido)succinamide] | 0.8 µM | 9 nM | 0.8 µM | 4.4 nM | 139 | 610 nM |  |
| Cc1ccc(S(=O)(=O)N[C@@H](CC(=O)NOC(C)(C)C)C(=O)N[C@@H](C)C(=O)NCc2cccc3ccccc23)cc1 [DPLG-2091, (S)—N4-(tert-butoxy)-2-((4-methylphenyl)sulfonamido)-N1-((S)-1-((naphthalen-1-ylmethyl)amino)-1-oxopropan-2-yl)succinamide] | 5.3 µM | 64 nM | 5.3 µM | 26 nM | 88 | 2300 nM |  |
| Cc1sc(-c2nsc(=O)o2)cc1[N+](=O)[O-] [HT1171] |  |  |  |  |  |  | kinact/KI (hu i-20S β5i; Hu20S β5i): 1010 M⁻¹ s⁻¹; kinact (hu i-20S β5i; Hu20S β5i): 0.00077 s⁻¹; Ki (hu i-20S β5i; Hu20S β5i, read-out: KI): 760 nM; kinact/KI (hu c-20S β5c): 10.1 M⁻¹ s⁻¹ |
| O=c1oc(-c2ccccn2)ns1 [HT1043] |  |  |  |  |  |  | kinact/KI (hu i-20S β5i; Hu20S β5i): 129 M⁻¹ s⁻¹; kinact (hu i-20S β5i; Hu20S β5i): 0.00025 s⁻¹; Ki (hu i-20S β5i; Hu20S β5i, read-out: KI): 2000 nM; kinact/KI (hu c-20S β5c): 0.2 M⁻¹ s⁻¹ |
| COC[C@H](NC(=O)[C@H](CC(=O)NOC(C)(C)C)NC(=O)CCc1ccccc1)C(=O)NCc1cccc2ccccc12 [DPLG-2086, (S)—N^4-(tert-butoxy)-N^1—((S)-3-methoxy-1-((naphthalen-1-ylmethyl)amino)-1-oxopropan-2-yl)-2-(3-phenylpropanamido)succinamide] | 0.46 µM | 5 nM | 0.46 µM |  |  |  | accumulation of poly-ubiquitinylated proteins (Karpas cells): accumulation of poly-Ub proteins |
| C[C@H](NC(=O)[C@H](CC(=O)NOC(C)(C)C)NC(=O)C(F)(F)F)C(=O)NCc1cccc2ccccc12 [DPLG-2106, (S)—N4-(tert-butoxy)-N1-((S)-1-((naphthalen-1-ylmethyl)amino)-1-oxopropan-2-yl)-2-(2,2,2-trifluoroacetamido)succinamide] | 7.8 µM | 1460 nM | 7.8 µM |  |  |  |  |
| COC[C@H](NC(=O)OC(C)(C)C)C(=O)N[C@@H](C)C(=O)NCc1cccc2ccccc12 [DPLG-2032, tert-butyl ((S)-3-methoxy-1-(((S)-1-((naphthalen-1-ylmethyl)amino)-1-oxopropan-2-yl)amino)-1-oxopropan-2-yl)carbamate] | 37 µM | > 100000 nM | >100 µM | 77800 nM |  | > 100000 nM |  |

Source: patent USRE49816E1, “Dipeptides as inhibitors of human immunoproteasomes” (CORNELL UNIVERSITY, priority 2014, dated 2024)
